Measurements reported in patent US20070275911A1, “Targeted Drug-Formaldehyde Conjugates and Methods of Making and Using the Same” (priority 2003, published 2007).
In brackets after ≈: the same amount, converted by molar mass. Like-named read-outs stand apart in the source and are kept apart here. Residues, ends and D or L forms follow the SMILES beside them. *: point of attachment. X1 = NOCC(=O)NCCOCCN*

Columns and labels:
[1] = test system: Staphylococcus aureus Mu 50 (VISA); conditions: for MIC: Mu 50 VISA
[2] = test system: Staphylococcus aureus Mu 3 (Hetero VISA)
[3] = test system: Staphylococcus aureus IL-A (Hetero VISA)
[4] = test system: Staphylococcus aureus IL-F (VISA)
[5] = test system: Staphylococcus aureus 8325 (susceptible); conditions: for MIC: 8325 susceptible
MCF-7 = conditions: sensitive MCF-7; cited from earlier work
MCF-7/ADR = conditions: resistant MCF-7/ADR; cited from earlier work
[6] = cited from earlier work; for tolerance by mice: doxoform: doses as low as 1 mg/kg, epidoxoform: up to 150% of MTD of doxorubicin
MCF-7 cells = assay: Breast cancer cell growth inhibition, 4 h treatment; conditions: MCF-7 (ER/AEBS/MDR +/+/−), 4 h treatment
Protocol: (§1) Breast cancer cell growth inhibition: The ER-targeted DOX-formaldehyde conjugates, 11a-c, were evaluated against four breast cancer cell lines that differ in terms of estrogen receptor and multidrug resistance expression. MCF-7 cells are human breast adenocarcinoma cells that express estrogen receptor at a level of 195,000 sites/cell. MCF-7/Adr cells are an ER-negative, doxorubicin-resistant variant of the parent MCF-7 that express the multidrug resistance (MDR) phenotype. MDA-MB-231 and MDA-MB-435 are ER-negative human breast adenocarcinoma and ductal carcinoma cells, respectively. All cytotoxins were formulated as 100× solutions in DMSO/1% AcOH and delivered to cells as 1% DMSO (0.01% AcOH) in cell culture medium. In all experiments cell treatment lasted 4 h.
(§2) In Vitro cellular growth inhibition experiments: The IC50 for the targeted formaldehyde conjugates and all control compounds were performed as previously described with minor modifications. All compounds were solubilized in dimethylsulfoxide containing 1% v/v acetic acid. The concentrations of all 100× DMSO/1% AcOH drug solutions was determined spectrophotometrically by absorbance at 480 nm (ε=[…]). […] For every experiment each drug level and controls were performed in hexuplicate; each experiment was performed in at least duplicate. Error bars represent one standard deviation about the mean for the six wells per lane measured for each drug concentration.

MCF-7/Adr cells = assay: as above; conditions: MCF-7/Adr (−/+/+), 4 h treatment
Protocol: as §1, §2

MDA-MB-231 = assay: as above; conditions: MDA-MB-231 (−/+/−), 4 h treatment
Protocol: as §1, §2

MDA-MB-435 = assay: as above; conditions: MDA-MB-435 (−/+/−), 4 h treatment
Protocol: as §1, §2

[7] = Water solubility and storage stability of RGD constructs
[8] = target: T1, ανβ3 integrin present on viable MDA-MB-435 cells (Homo sapiens, UniProt P05106+P06756); assay: Vitronectin cell adhesion (competition) assay; type: cell-based
T1 construct: endogenous in cells
Source text: The data are presented as the mean fluorescence for each condition with the background, drug-free cell fluorescence subtracted.

E. coli ATCC 25922 = conditions: cited from earlier work
P. aeruginosa ATCC 27853 = conditions: cited from earlier work
S. aureus ATCC 25723 = conditions: cited from earlier work
3T3 mouse fibroblasts = conditions: cited from earlier work
Human erythrocytes = conditions: cited from earlier work
[9] = buffer, pH 7.4; cited from earlier work
[10] = cell line not stated; cited from earlier work
[11] = test system: Staphylococcus aureus Mu 50 (VISA); assay: microbe, parasite or virus in culture
[12] = test system: Staphylococcus aureus Mu 3 (Hetero VISA); assay: microbe, parasite or virus in culture
[13] = test system: Staphylococcus aureus IL-A (Hetero VISA); assay: microbe, parasite or virus in culture
[14] = test system: Staphylococcus aureus IL-F (VISA); assay: microbe, parasite or virus in culture
[15] = test system: Staphylococcus aureus 8325 (susceptible); assay: microbe, parasite or virus in culture
[16] = test system: MDA-MB-23 1, and BT-20 human breast cancer cells; conditions: cited from earlier work
[17] = test system: human breast cancer xenografts; conditions: same time period (10 days); cited from earlier work

O=C(NCN1CCN(c2cc3c(cc2F)c(=O)c(C(=O)O)cn3C2CC2)CC1)c1ccccc1O [Ciprosaliform, N-(2-Hydroxybenzamido-methyl)-ciprofloxacin]
MIC ([1]; 24 hr): 4 µM (≈ 1.92 µg/mL)
MIC ([1]; 48 hr): 8 µM (≈ 3.84 µg/mL)
MIC ([2]; 24 hr): 4 µM (≈ 1.92 µg/mL)
MIC ([2]; 48 hr): 8 µM (≈ 3.84 µg/mL)
MIC ([3]; 24 hr): 8/8 μM
MIC ([3]; 48 hr): 8/8 μM
MIC ([4]; 24 hr): 8/8 μM
MIC ([4]; 48 hr): 8/8 μM
MIC ([5]; 24 hr): 1/1 μM
MIC ([5]; 48 hr): 1/1 μM
fold more active than ciprofloxacin ([5]; susceptible strain): 6 fold

COc1cccc2c1C(=O)c1c(O)c3c(c(O)c1C2=O)C[C@@](O)(C(=O)CO)C[C@@H]3OC1CC2C(OCN2CN2COC3C(C)OC(O[C@H]4C[C@](O)(C(=O)CO)Cc5c(O)c6c(c(O)c54)C(=O)c4c(OC)cccc4C6=O)CC32)C(C)O1 (stereo partly drawn) [doxoform]
times as potent as doxorubicin (MCF-7): 250 times
times as potent as doxorubicin (MCF-7/ADR): 10,000 times
tolerance by mice [6]: poorly tolerated

CC/C(=C(\c1ccc(O)cc1)c1ccc(OCCN(C)C)cc1)c1ccccc1 [compound 12, E/Z-4-Hydroxytamoxifen, reference compound]
IC50 (MCF-7 cells): 0.3 µM
IC50 (MCF-7/Adr cells): 20 to 40 µM
IC50 (MDA-MB-231): 20 to 40 µM
IC50 (MDA-MB-435): 20 to 40 µM

RGD-4C: peptide CDCRGDCFC; at b346 the form with disulfide bridges [reference compound]
water solubility [7]: poorly water soluble over a range of pH

N=C(N)NCCC[C@H](NC(=O)[C@H](CS)NC(=O)[C@H](CC(=O)O)NC(=O)[C@@H](N)CS)C(=O)NCC(=O)N[C@@H](CC(=O)O)C(=O)N[C@@H](CS)C(=O)N[C@@H](Cc1ccccc1)C(=O)N[C@@H](CS)C(=O)NCCOCCNC(=O)CON [Acyclic-RGD-4C-tether 3] (H-CDCRGDCFC-X1)
IC50 [8]: 0.001 µM

(KLAKKLA)2: antimicrobial peptide (KLAKKLA)2 SEQ ID NO: 3 (microbe homing peptide)
MIC (bacterial lysis) (E. coli ATCC 25922): 6 µM
MIC (bacterial lysis) (P. aeruginosa ATCC 27853): 3 µM
MIC (bacterial lysis) (S. aureus ATCC 25723): 6 µM
sub-lethal concentration (lysis) (3T3 mouse fibroblasts): >272 µM
sub-lethal concentration (lysis) (Human erythrocytes): >750 µM

COc1cccc2c1C(=O)c1c(O)c3c(c(O)c1C2=O)C[C@@](O)(C(=O)CO)C[C@@H]3O[C@H]1C[C@H]2C(OCN3CN2CO[C@H]2[C@@H](C)O[C@@H](O[C@H]4C[C@](O)(C(=O)CO)Cc5c(O)c6c(c(O)c54)C(=O)c4c(OC)cccc4C6=O)C[C@@H]23)[C@H](C)O1 (stereo partly drawn) [epidoxoform]
half-life [9]: 2 h
tolerance by mice [6]: well tolerated
efficacy in mice ([6]; relative to doxorubicin): improved efficacy in mice, relative to doxorubicin

C#Cc1cccc(Nc2ncnc3cc(OCCOC)c(OCCOC)cc23)c1 [Tarceva, reference compound]
IC50 [10]: 0.05 µM

CN[C@H](CC(C)C)C(=O)N[C@H]1C(=O)N[C@@H](CC(N)=O)C(=O)N[C@H]2C(=O)N[C@H]3C(=O)N[C@H](C(=O)N[C@H](C(=O)O)c4cc(O)cc(O)c4-c4cc3ccc4O)[C@H](O)c3ccc(c(Cl)c3)Oc3cc2cc(c3O[C@@H]2O[C@H](CO)[C@@H](O)[C@H](O)[C@H]2O[C@H]2C[C@](C)(N)[C@H](O)[C@H](C)O2)Oc2ccc(cc2Cl)[C@H]1O [Vancomycin, vancomycin]
MIC ([11]; 24 h): 4 µM (≈ 5.8 µg/mL)
MIC ([11]; 48 h): 4 µM (≈ 5.8 µg/mL)
MIC ([12]; 24 h): 0.5 µM (≈ 0.725 µg/mL)
MIC ([12]; 48 h): 1 µM (≈ 1.45 µg/mL)
MIC ([13]; 24 h): 1 µM (≈ 1.45 µg/mL)
MIC ([13]; 48 h): 1 µM (≈ 1.45 µg/mL)
MIC ([14]; 24 h): 3 µM (≈ 4.35 µg/mL)
MIC ([14]; 48 h): 3 µM (≈ 4.35 µg/mL)
MIC ([15]; 24 h): 0.3 µM (≈ 0.435 µg/mL)
MIC ([15]; 48 h): 0.3 µM (≈ 0.435 µg/mL)

O=c1c(-c2ccc(O)cc2)coc2cc(O)cc(O)c12 [genistein]
antitumor activity [16]: 120 µM
IC50 [10]: 120 µM
increase in tumor size [17]: > 200%

O=C(O)c1cn(C2CC2)c2cc(N3CCNCC3)c(F)cc2c1=O [Ciprofloxacin, ciprofloxacin]
antibiotic activity ([1]; VISA and hetero VISA strains): inactive
MIC ([15]; 24 h): 6 µM (≈ 1.99 µg/mL)
MIC ([15]; 48 h): 12 µM (≈ 3.98 µg/mL)
